Measured values from patent US9593110B2, “Neprilysin inhibitors” (Theravence Biopharma R&D IP, LLC, priority 2014, dated 2017).

target: human NEP (Homo sapiens (Human), UniProt P08473); test: In vitro enzyme inhibition assay at human NEP; conditions: pKi, recombinant human NEP, fluorogenic peptide substrate, 37° C.
Sequence (P08473 52-750): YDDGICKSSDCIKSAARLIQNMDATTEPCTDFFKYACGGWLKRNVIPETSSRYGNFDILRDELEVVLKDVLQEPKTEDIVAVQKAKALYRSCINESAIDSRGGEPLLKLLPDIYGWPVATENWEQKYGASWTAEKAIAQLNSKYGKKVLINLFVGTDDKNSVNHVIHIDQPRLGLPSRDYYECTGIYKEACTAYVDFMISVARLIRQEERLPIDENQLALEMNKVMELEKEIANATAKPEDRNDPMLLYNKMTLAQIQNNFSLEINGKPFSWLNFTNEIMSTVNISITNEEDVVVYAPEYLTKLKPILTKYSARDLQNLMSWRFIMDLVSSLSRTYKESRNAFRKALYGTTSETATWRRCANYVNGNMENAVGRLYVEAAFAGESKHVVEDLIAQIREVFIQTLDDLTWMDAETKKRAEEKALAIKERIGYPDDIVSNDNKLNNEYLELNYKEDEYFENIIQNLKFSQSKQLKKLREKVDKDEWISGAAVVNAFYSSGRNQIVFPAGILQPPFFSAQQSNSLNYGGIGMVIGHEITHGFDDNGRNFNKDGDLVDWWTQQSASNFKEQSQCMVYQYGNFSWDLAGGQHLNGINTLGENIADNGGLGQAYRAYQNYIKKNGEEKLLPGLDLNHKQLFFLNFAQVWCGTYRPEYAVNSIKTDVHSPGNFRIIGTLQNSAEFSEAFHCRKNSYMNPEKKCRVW

Row | SMILES | Ki
1 | CC1(O)CN(C[C@@H](C[C@@H](Cc2ccc(-c3cc(Cl)ccc3F)cc2)NC(=O)c2c[nH]nn2)C(=O)O)C1 [Example 101c, (2R,4S)-5-(5′-Chloro-2′-fluorobiphenyl-4-yl)-2-(3-hydroxy-3-methylazetidin-1-ylmethyl)-4-[(1H-[1,2,3]triazole-4-carbonyl)amino]pentanoic Acid] | 1.26 to 3.16 nM
2 | NC[C@H](C[C@@H](Cc1ccc(-c2cc(Cl)ccc2F)cc1)NC(=O)c1cnsc1)C(=O)O [Example 21-7, (2S,4S)-2-Aminomethyl-5-(5′-chloro-2′-fluorobiphenyl-4-yl)-4-[(isothiazole-4-carbonyl)amino]pentanoic acid] | 1.26 to 3.16 nM
3 | COC[C@H](C[C@@H](Cc1ccc(-c2cc(Cl)ccc2F)cc1)NC(=O)c1[nH]nc(C2CC2)c1F)C(=O)O [Example 2-3, (2S,4S)-5-(5′-Chloro-2′-fluorobiphenyl-4-yl)-4-[(5-cyclopropyl-4-fluoro-2H-pyrazole-3-carbonyl)amino]-2-methoxymethylpentanoic acid] | 1.26 to 3.16 nM
4 | N[C@@H](C[C@@H](Cc1ccc(-c2cc(Cl)ccc2F)cc1)NC(=O)c1nc2cc(Cl)ccn2n1)C(=O)O [Example 16-26, (2S,4R)-2-Amino-5-(5′-chloro-2′-fluorobiphenyl-4-yl)-4-[(7-chloro-[1,2,4]triazolo[1,5-a]pyridine-2-carbonyl)amino]pentanoic acid] | 1.26 to 3.16 nM
5 | COC[C@H]1CCN1C[C@H](C[C@@H](Cc1ccc(-c2cc(Cl)ccc2F)cc1)NC(=O)c1c[nH]nn1)C(=O)O [Example 103b, (2S,4S)-5-(5′-Chloro-2′-fluorobiphenyl-4-yl)-2-((R)-2-methoxymethylazetidin-1-ylmethyl)-4-[(3H-[1,2,3]triazole-4-carbonyl)amino]pentanoic Acid] | ≤ 1 nM
6 | CCOc1nc(C(=O)N[C@H](Cc2ccc(-c3cc(Cl)ccc3F)cc2)C[C@@H](CN)C(=O)O)co1 [Example 21-4, (2S,4S)-2-Aminomethyl-5-(5′-chloro-2′-fluorobiphenyl-4-yl)-4-[(2-ethoxy-oxazole-4-carbonyl)amino]pentanoic acid] | 1.26 to 3.16 nM
7 | CCOC[C@H](C[C@@H](Cc1ccc(-c2cccc(Cl)c2)cc1)NC(=O)c1cc(O)no1)C(=O)O [Example 8, (2S,4S)-5-(3′-Chlorobiphenyl-4-yl)-2-ethoxymethyl-4-[(3-hydroxyisoxazole-5-carbonyl)amino]pentanoic Acid] | ≤ 1 nM
8 | NC[C@H](C[C@@H](Cc1ccc(-c2cc(Cl)ccc2F)cc1)NC(=O)c1coc(C2CC2)n1)C(=O)O [Example 21-2, (2S,4S)-2-Aminomethyl-5-(5′-chloro-2′-fluorobiphenyl-4-yl)-4-[(2-cyclopropyl-oxazole-4-carbonyl)amino]pentanoic acid] | 1.26 to 3.16 nM
9 | Cc1cnc(C(=O)N[C@H](Cc2ccc(-c3cc(Cl)ccc3F)cc2)C[C@@H](CCN)C(=O)O)o1 [Example 23, (2R,4S)-2-(2-Aminoethyl)-5-(5′-chloro-2′-fluorobiphenyl-4-yl)-4-[(5-methyloxazole-2-carbonyl)amino]pentanoic Acid] | 1.26 to 3.16 nM
10 | O=C(N[C@H](Cc1ccc(-c2cc(Cl)ccc2F)cc1)C[C@@H](CN1CCOCC1)C(=O)O)c1c[nH]nn1 [Example 69a, (2S,4S)-5-(5′-Chloro-2′-fluorobiphenyl-4-yl)-2-morpholin-4-ylmethyl-4-[(1H-[1,2,3]triazole-4-carbonyl)amino]pentanoic Acid] | 1.26 to 3.16 nM
11 | O=C(N[C@H](Cc1ccc(-c2cc(Cl)ccc2F)cc1)C[C@@H](CNCCF)C(=O)O)c1cnn[nH]1 [Example 81, (2S,4S)-5-(5′-Chloro-2′-fluorobiphenyl-4-yl)-2-[(2-fluoroethylamino)methyl]-4-[(3H-[1,2,3]triazole-4-carbonyl)amino]pentanoic Acid] | 3.16 to 10 nM
12 | CCCc1nc(C(=O)N[C@H](Cc2ccc(-c3cc(Cl)ccc3F)cc2)C[C@@H](N)C(=O)O)co1 [Example 16-6, (2R,4R)-2-Amino-5-(5′-chloro-2′-fluorobiphenyl-4-yl)-4-[(2-propyloxazole-4-carbonyl)-amino]pentanoic acid] | 3.16 to 10 nM
13 | NCC[C@H](C[C@@H](Cc1ccc(-c2cc(Cl)ccc2F)cc1)NC(=O)c1cnn[nH]1)C(=O)O [Example 24-2, (2R,4S)-2-(2-Aminoethyl)-5-(5′-chloro-2′-fluorobiphenyl-4-yl)-4-[(3H-[1,2,3]triazole-4-carbonyl)amino]pentanoic acid] | 1.26 to 3.16 nM
14 | N[C@@H](C[C@@H](Cc1ccc(-c2cc(Cl)ccc2F)cc1)NC(=O)c1noc(=O)[nH]1)C(=O)O [Example 16-15, (2S,4R)-2-Amino-5-(5′-chloro-2′-fluorobiphenyl-4-yl)-4-[(5-oxo-4,5-dihydro-[1,2,4]oxadiazole-3-carbonyl)amino]pentanoic acid] | 3.16 to 10 nM
15 | CC(=O)N[C@H](C[C@@H](Cc1ccc(-c2ccccc2F)cc1)NC(=O)c1c[nH]nn1)C(=O)O [Example 25, (2R,4R)-2-Acetylamino-5-(2′-fluorobiphenyl-4-yl)-4-[(1H-[1,2,3]triazole-4-carbonyl)amino]pentanoic Acid] | 3.16 to 10 nM
16 | CC(C)c1coc(C(=O)N[C@H](Cc2ccc(-c3cc(Cl)ccc3F)cc2)C[C@@H](NC(=O)CN)C(=O)O)n1 [Example 34-1, (2R,4R)-2-(2-Aminoacetylamino)-5-(5′-chloro-2′-fluorobiphenyl-4-yl)-4-[(4-isopropyloxazole-2-carbonyl)amino]pentanoic acid] | 1.26 to 3.16 nM
17 | O=C(N[C@H](Cc1ccc(-c2cc(Cl)ccc2F)cc1)C[C@@H](CN1CCC1)C(=O)O)c1cnn[nH]1 [Example 84b, (2S,4S)-2-Azetidin-1-ylmethyl-5-(5′-chloro-2′-fluorobiphenyl-4-yl)-4-[(3H-[1,2,3]triazole-4-carbonyl)amino]pentanoic Acid] | ≤ 1 nM
18 | O=C(N[C@H](Cc1ccc(-c2cc(Cl)ccc2F)cc1)C[C@@H](Cc1noc(=O)[nH]1)C(=O)O)c1cnn[nH]1 [Example 66, (2S,4S)-5-(5′-Chloro-2′-fluorobiphenyl-4-yl)-2-(5-oxo-4,5-dihydro-[1,2,4]oxadiazol-3-ylmethyl)-4-[(3H-[1,2,3]triazole-4-carbonyl)amino]pentanoic Acid] | 1.26 to 3.16 nM
19 | COCCN[C@H](C[C@@H](Cc1ccc(-c2cc(Cl)ccc2F)cc1)NC(=O)c1c[nH]nn1)C(=O)O [Example 98a, (2R,4R)-5-(5′-Chloro-2′-fluorobiphenyl-4-yl)-2-(2-methoxyethylamino)-4-[(1H-[1,2,3]triazole-4-carbonyl)amino]pentanoic Acid] | ≤ 1 nM
20 | O=C(N[C@H](Cc1ccc(-c2ccccc2)cc1)C[C@@H](COCCO)C(=O)O)c1c[nH]nn1 [Example 11, (2S,4S)-5-Biphenyl-4-yl-2-(2-hydroxyethoxymethyl)-4-[(1H-[1,2,3]triazole-4-carbonyl)amino]pentanoic Acid] | 1.26 to 3.16 nM
21 | COCCCNC[C@H](C[C@@H](Cc1ccc(-c2cc(Cl)ccc2F)cc1)NC(=O)c1cnn[nH]1)C(=O)O [Example 74, (2S,4S)-5-(5′-Chloro-2′-fluorobiphenyl-4-yl)-2-[(3-methoxypropylamino)-methyl]-4-[(3H-[1,2,3]triazole-4-carbonyl)amino]pentanoic Acid] | 1.26 to 3.16 nM
22 | COC1CN(C[C@@H](C[C@@H](Cc2ccc(-c3cc(Cl)ccc3F)cc2)NC(=O)c2c[nH]nn2)C(=O)O)C1 [Example 102c, (2R,4S)-5-(5′-Chloro-2′-fluorobiphenyl-4-yl)-2-(3-methoxyazetidin-1-ylmethyl)-4-[(1H-[1,2,3]triazole-4-carbonyl)amino]pentanoic Acid] | ≤ 1 nM

same assay, conditions: recombinant human NEP, fluorogenic peptide substrate, 37° C.

Row | SMILES | pKi
23 | CC(C)[C@H](N)C(=O)N[C@H](C[C@@H](Cc1ccc(-c2cc(Cl)ccc2F)cc1)NC(=O)c1cnn[nH]1)C(=O)O [Example 39-1, (2R,4R)-2-((S)-2-Amino-3-methylbutyrylamino)-5-(5′-chloro-2′-fluorobiphenyl-4-yl)-4-[(3H-[1,2,3]triazole-4-carbonyl)amino]pentanoic acid] | ≧9.0
24 | CCOC[C@H](C[C@@H](Cc1ccc(-c2cc(Cl)ccc2F)cc1)NC(=O)c1cc(C(C)=O)n[nH]1)C(=O)O [Example 7-3, (2S,4S)-4-[(5-Acetyl-2H-pyrazole-3-carbonyl)-amino]-5-(5′-chloro-2′-fluorobiphenyl-4-yl)-2-ethoxymethylpentanoic acid] | ≧9.0
25 | COC(=O)N[C@H](C[C@@H](Cc1ccc(-c2cc(Cl)ccc2F)cc1)NC(=O)c1ncco1)C(=O)O [Example 30-3, (2R,4R)-5-(5′-Chloro-2′-fluoro-biphenyl-4-yl)-2-methoxycarbonylamino-4-[(oxazole-2-carbonyl)amino]pentanoic acid] | ≧9.0
26 | N[C@H](C[C@@H](Cc1ccc(-c2cc(Cl)ccc2F)cc1)NC(=O)c1noc(=O)[nH]1)C(=O)O [Example 16-16, (2R,4R)-2-Amino-5-(5′-chloro-2′-fluorobiphenyl-4-yl)-4-[(5-oxo-4,5-dihydro-[1,2,4]oxadiazole-3-carbonyl)amino]pentanoic acid] | ≧9.0
27 | COC[C@H](C[C@@H](Cc1ccc(-c2cccc(Cl)c2)cc1)NC(=O)c1cc(O)no1)C(=O)O [Example 4-2, (2S,4S)-5-(3′-Chlorobiphenyl-4-yl)-4-[(3-hydroxy-isoxazole-5-carbonyl)amino]-2-methoxymethylpentanoic acid] | ≧9.0
28 | COC[C@H](C[C@@H](Cc1ccc(-c2cc(Cl)ccc2F)cc1)NC(=O)c1cc(O)no1)C(=O)O [Example 2-5, (2S,4S)-5-(5′-Chloro-2′-fluorobiphenyl-4-yl)-4-[(3-hydroxyisoxazole-5-carbonyl)-amino]-2-methoxymethylpentanoic acid] | ≧9.0
29 | COC(=O)NCC(=O)N[C@H](C[C@@H](Cc1ccc(-c2cc(Cl)ccc2F)cc1)NC(=O)c1c[nH]nn1)C(=O)O [Example 67, (2R,4R)-5-(5′-Chloro-2′-fluorobiphenyl-4-yl)-2-(2-methoxycarbonylaminoacetylamino)-4-[(1H-[1,2,3]triazole-4-carbonyl)amino]pentanoic Acid] | ≧9.0
30 | NCC(=O)N[C@H](C[C@@H](Cc1ccc(-c2cc(Cl)ccc2F)cc1)NC(=O)c1c[nH]nn1)C(=O)O [Example 33, (2R,4R)-2-(2-Aminoacetylamino)-5-(5′-chloro-2′-fluoro-biphenyl-4-yl)-4-[(1H-[1,2,3]triazole-4-carbonyl)amino]pentanoic Acid] | ≧9.0
